Test results published in paper PMC8151276, “An Integrated Approach toward NanoBRET Tracers for Analysis of GPCR Ligand Engagement” (Molecules, 2021).

Key:
PTGIR = biological target: T1, PTGIR (Homo sapiens, UniProt P43119); assay: NanoBRET screen HiBiT-PTGIR in HEK293; format: binding
T1 construct: purchased Promega (in-house HiBiT-GPCR construct library, NanoBRET)
Procedure: (§1) Each tracer candidate was screened across the entire library of HiBiT-GPCR constructs using NanoBRET as the detection modality. As depicted in Figure 4A, the specificity of interactions was evaluated through decrease in BRET due to competitive displacement of a bound tracer by excess parental compound. Each tracer was analyzed for binding to each HiBiT-GPCR fusion in the absence and in the presence of competing parental compound. Briefly, HEK293 cells were transfected with HiBiT-GPCR constructs diluted into promoterless DNA to reduce expression and maximize translocation to the cell surface. Each tracer candidate was then screened at concentrations of 1 μM and 0.1 μM across cells expressing these fusions. Cells were treated for 1.5 h with tracer either alone or in the presence of 20 μM competing parental compound (i.e., control). BRET was measured upon addition of purified LgBiT and subsequent complementation with HiBiT genetically fused to a GPCR. The specificity of interactions was assessed through a decrease in BRET signal due to competitive displacement of the bound tracer. To further gauge the robustness of these interactions, the fold response over the control (i.e., BRETtracer/BRETcontrol) was calculated. We chose a 1.5-fold response, which translates to ≥7-fold signal over noise as the minimal threshold required to score an interaction as positive. […]. Below we highlight the screening results obtained for our exemplary fluorescent tracers based on Clozapine, Amitriptyline and AZD1283.
(§2) HiBiT-GPCR DNA constructs were diluted in 10 mM Tris pH 8 to a final concentration of 0.01 μg/μL, arrayed in 96-well plates and stored at −20 °C. For transfection, HEK293 cells were suspended in Opti-MEM (without phenol red) supplemented with 2% fetal bovine serum (Seradigm) and 100 units/mL penicillin–streptomycin (Gibco) at a final concentration of 220,000 cells/mL and dispensed into white 96-well plates at 90 μL/well. Subsequent transfections and screens were carried using an Agilent Bravo Automated Liquid Handling Platform. First, the 96-well HiBiT DNA arrays were diluted 25-fold in Opti-MEM (without serum or phenol red) to a final concentration of 0.0004 μg/μL and 20 μL of the diluted DNAs were transferred into new 96-well plates. Next, promoterless carrier DNA (1 μg/μL) was diluted 25-fold (0.04 μg/μL) and then dispensed into the diluted arrays at 20 μL/well. Following brief mixing, Viafect transfection reagent (Promega) diluted 16-fold into Opti-MEM was dispensed into the plates at 40 μL/well. After mixing by pipetting, plates were incubated for 10 min on the pipetting station deck. The DNA-transfection reagent complexes were then added to plates containing cells. To facilitate the screen, 10 μL of DNA-transfection reagent complexes were added in duplicates to the top 4 and bottom 4 rows, resulting in two identical 48-well arrays per plate. Plates with transfected cells were incubated for 18–20 h at 37 °C/5% CO2. A screen of each tracer across the entire library using two different concentrations requires duplicate plates of transfected cells. Depending on the number of tracers being screened, transfections can be scaled up using the same ratios. The next day, for each tracer, four 20× screening solutions in tracer dilution buffer (Promega) were prepared: two duplicates at final concentration of 20 μM and two duplicates at a final concentration of 2 μM. A competing unmodified compound was added to one of each duplicate at a final concentration of 400 μM. The four resulting solutions were diluted 4-fold in Opti-MEM without serum or phenol red to generate 5× solutions (5 µM and 0.5 µM tracer +/− 100 μM competing compound). To screen the library, a BioTek MultiFlo FX liquid dispenser was used to dispense 22.5 µL of tracer solution to the top 4 rows and 22.5 µL tracer + competing compound solution to the 4 bottom rows. Plates were briefly mixed on an orbital shaker and incubated for 1.5 h at room temperature. […]

PTGER4 = biological target: T2, PTGER4 (Homo sapiens, UniProt P35408); assay: NanoBRET screen HiBiT-PTGER4 in HEK293; format: binding
T2 construct: purchased Promega (in-house HiBiT-GPCR construct library, NanoBRET)
T2 sequence (P35408 whole entry): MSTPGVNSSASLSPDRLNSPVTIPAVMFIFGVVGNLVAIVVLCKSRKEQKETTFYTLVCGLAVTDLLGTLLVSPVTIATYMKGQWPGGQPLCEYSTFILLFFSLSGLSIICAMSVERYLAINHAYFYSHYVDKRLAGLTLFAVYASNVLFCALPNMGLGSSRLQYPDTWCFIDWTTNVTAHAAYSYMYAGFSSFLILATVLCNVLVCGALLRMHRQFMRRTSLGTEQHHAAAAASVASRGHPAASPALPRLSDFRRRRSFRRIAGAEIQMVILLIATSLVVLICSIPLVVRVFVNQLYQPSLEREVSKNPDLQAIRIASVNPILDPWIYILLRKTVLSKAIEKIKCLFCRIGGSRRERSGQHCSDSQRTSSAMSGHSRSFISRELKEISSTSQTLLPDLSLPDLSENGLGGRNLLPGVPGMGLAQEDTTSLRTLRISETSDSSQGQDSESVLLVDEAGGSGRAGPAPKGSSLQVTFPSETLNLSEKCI
Procedure: as §1, §2

T1 sequence (P43119 whole entry): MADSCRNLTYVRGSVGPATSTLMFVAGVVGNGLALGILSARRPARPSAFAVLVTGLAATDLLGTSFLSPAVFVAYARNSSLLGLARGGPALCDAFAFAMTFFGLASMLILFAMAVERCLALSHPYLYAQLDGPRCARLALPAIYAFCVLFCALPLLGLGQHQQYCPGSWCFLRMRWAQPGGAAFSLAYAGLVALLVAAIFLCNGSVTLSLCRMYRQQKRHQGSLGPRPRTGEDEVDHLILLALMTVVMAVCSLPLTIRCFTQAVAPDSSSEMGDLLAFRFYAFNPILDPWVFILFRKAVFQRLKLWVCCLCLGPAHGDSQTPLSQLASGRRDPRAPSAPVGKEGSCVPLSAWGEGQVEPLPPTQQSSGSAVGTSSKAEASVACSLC

| Structure (SMILES) | NanoBRET Fold Response (PTGIR; PTGIR, tracer 0.1μM) | NanoBRET Fold Response (PTGIR; PTGIR, tracer 1μM) | NanoBRET Fold Response (PTGER4; PTGER4, tracer 0.1μM) | NanoBRET Fold Response (PTGER4; PTGER4, tracer 1μM) | other results |
| --- | --- | --- | --- | --- | --- |
| O=C(CCOCCOCCOCCOCCNC(=O)CCc1ccc2n1[B-](F)(F)[N+]1=C(c3ccc[nH]3)C=CC1=C2)NCCCN1CCN(C2=Nc3ccccc3Oc3ccc(Cl)cc32)CC1 [Loxapine-a-2-NB590] | 0.99 | 1.04 | 0.97 | 1.07 |  |
| CCCn1c(=O)c2[nH]c(-c3ccc(OCC(=O)NCCNC(=O)CCOCCNC(=O)c4ccc(CNC(=O)CCc5ccc6n5[B-](F)(F)[N+]5=C(c7ccc[nH]7)C=CC5=C6)cc4)cc3)nc2n(CCC)c1=O [XAC-3-NB590] | 0.99 | 1.05 | 1.15 | 1.01 |  |
| COc1ccccc1N1CCN(CCCCN2C(=O)c3ccc(CNC(=O)CCOCCOCCOCCOCCNC(=O)CCc4ccc5n4[B-](F)(F)[N+]4=C(c6ccc[nH]6)C=CC4=C5)cc3C2=O)CC1 [NAN-190-2-NB590] | 0.99 | 1.02 | 1.02 | 1.01 |  |
| O=C(CCc1ccc2n1[B-](F)(F)[N+]1=C(c3ccc[nH]3)C=CC1=C2)NCc1ccc(C(=O)NCCOCCOCCNCC(O)COc2cccc3ccccc23)cc1 (stereo not drawn) [Propranolol-3-NB590] |  |  |  |  | NanoBRET Fold Response (PTGIR; PTGIR, 0.1μM): 1.05; NanoBRET Fold Response (PTGIR; PTGIR, 1μM): 0.97; NanoBRET Fold Response (PTGER4; PTGER4, 0.1μM): 1.04; NanoBRET Fold Response (PTGER4; PTGER4, 1μM): 1.06 |
| COc1ccccc1N1CCN(CCCCN2C(=O)c3ccc(CNC(=O)CCOCCNC(=O)c4ccc(CNC(=O)CCc5ccc6n5[B-](F)(F)[N+]5=C(c7ccc[nH]7)C=CC5=C6)cc4)cc3C2=O)CC1 [NAN-190-3-NB590] | 0.95 | 1.01 | 1.00 | 0.97 |  |
| O=C(CCc1ccc2n1[B-](F)(F)[N+]1=C(c3ccc[nH]3)C=CC1=C2)NCc1ccc(C(=O)NCCOCCC(=O)N[C@@H]2CC[C@@]3(O)[C@H]4Cc5ccc(O)c6c5[C@@]3(CCN4CC3CC3)[C@H]2O6)cc1 [Naltrexone-3-NB590] | 0.98 | 1.17 | 0.94 | 1.01 |  |
| CCOC(=O)c1cc(C#N)c(N2CCC(C(=O)NS(=O)(=O)Cc3ccccc3/C=C/C(=O)NCCNC(=O)CCc3ccc4n3[B-](F)(F)[N+]3=C(c5ccc[nH]5)C=CC3=C4)CC2)nc1C [AZD1283-1-NB590] |  |  |  |  | NanoBRET Fold Response (PTGIR; PTGIR, 0.1μM): 1.04; NanoBRET Fold Response (PTGIR; PTGIR, 1μM): 1.07; NanoBRET Fold Response (PTGER4; PTGER4, 0.1μM): 1.03; NanoBRET Fold Response (PTGER4; PTGER4, 1μM): 1.02 |
| COc1ccc2[nH]c(-c3ccc(CNC(=O)CCOCCOCCOCCOCCNC(=O)CCc4ccc5n4[B-](F)(F)[N+]4=C(c6ccc[nH]6)C=CC4=C5)cc3)c(CCNC(C)=O)c2n1 [AzomelatoninICO9-2-NB590] |  |  |  |  | NanoBRET Fold Response (PTGIR; 0.1μM tracer): 1.03; NanoBRET Fold Response (PTGIR; 1μM tracer): 0.98; NanoBRET Fold Response (PTGER4; 0.1μM tracer): 0.97; NanoBRET Fold Response (PTGER4; 1μM tracer): 0.97 |
| CC(C)N(CC[C@H](c1ccccc1)c1cc(CCNC(=O)CCOCCOCCOCCOCCNC(=O)CCc2ccc3n2[B-](F)(F)[N+]2=C(c4ccc[nH]4)C=CC2=C3)ccc1O)C(C)C [Tolterodine-2-NB590] | 1.07 | 1.12 | 1.00 | 0.99 |  |
| CN1CCN(C2=Nc3cc(Cl)ccc3N(CC(=O)NCCOCCOCCOCCOCCNC(=O)CCc3ccc4n3[B-](F)(F)[N+]3=C(c5ccc[nH]5)C=CC3=C4)c3ccccc32)CC1 [Clozapine-c-2-NB590] |  |  |  |  | NanoBRET Fold Response (PTGIR; PTGIR, 0.1μM tracer): 0.96; NanoBRET Fold Response (PTGIR; PTGIR, 1μM tracer): 1.09; NanoBRET Fold Response (PTGER4; PTGER4, 0.1μM tracer): 1.00; NanoBRET Fold Response (PTGER4; PTGER4, 1μM tracer): 1.05 |
| N#CN=C(NCCCOc1cccc(CN2CCCCC2)c1)NCCNC(=O)CCOCCOCCOCCOCCNC(=O)CCc1ccc2n1[B-](F)(F)[N+]1=C(c3ccc[nH]3)C=CC1=C2 [Aminopotentidine-2-NB590] | 1.03 | 1.03 | 1.05 | 1.03 |  |
| COc1ccc2c(n1)c(CCNC(C)=O)cn2CCNC(=O)CCc1ccc2n1[B-](F)(F)[N+]1=C(c3ccc[nH]3)C=CC1=C2 [Azamelatonin-1-NB590] |  |  |  |  | NanoBRET Fold Response (PTGIR; 0.1μM tracer): 0.94; NanoBRET Fold Response (PTGIR; 1μM tracer): 1.06; NanoBRET Fold Response (PTGER4; 0.1μM tracer): 1.06; NanoBRET Fold Response (PTGER4; 1μM tracer): 0.96 |
| CC(C)N(CC[C@H](c1ccccc1)c1cc(CCNC(=O)c2ccc(CNC(=O)CCc3ccc4n3[B-](F)(F)[N+]3=C(c5ccc[nH]5)C=CC3=C4)cc2)ccc1O)C(C)C [Tolterodine-BZ-NB590] | 1.00 | 1.04 | 1.02 | 1.04 |  |
| O=C(CCc1ccc2n1[B-](F)(F)[N+]1=C(c3ccc[nH]3)C=CC1=C2)NCCOCCOCCNC(=O)OCCOCCN1CCN(C2=Nc3ccccc3Sc3ccccc32)CC1 [Quetiapine-a-2-NB590] | 1.03 | 0.94 | 1.02 | 1.08 |  |
| Cc1cc2c(s1)Nc1ccccc1N=C2N1CCN(CCCNC(=O)CCOCCOCCOCCOCCNC(=O)CCc2ccc3n2[B-](F)(F)[N+]2=C(c4ccc[nH]4)C=CC2=C3)CC1 [Olanzapine-a-2-NB590] | 0.99 | 0.98 | 1.02 | 1.07 |  |
| CN(C)CCC=C1c2ccccc2CCc2ccc(C(=O)NCCNC(=O)CCOCCOCCOCCOCCNC(=O)CCc3ccc4n3[B-](F)(F)[N+]3=C(c5ccc[nH]5)C=CC3=C4)cc21 [Amitriptyline-b-2-NB590] | 0.99 | 0.98 |  |  | NanoBRET Fold Response (PTGER4; tracer at 0.1μM): 0.99; NanoBRET Fold Response (PTGER4; tracer at 1μM): 1.04 |
| O=C(CCOCCOCCOCCOCCNC(=O)CCc1ccc2n1[B-](F)(F)[N+]1=C(c3ccc[nH]3)C=CC1=C2)NCCCN1CCN(C2=Nc3cc(Cl)ccc3Nc3ccccc32)CC1 [Clozapine-a-2-NB590] |  |  |  |  | NanoBRET Fold Response (PTGIR; PTGIR, 0.1μM tracer): 1.04; NanoBRET Fold Response (PTGIR; PTGIR, 1μM tracer): 0.98; NanoBRET Fold Response (PTGER4; PTGER4, 0.1μM tracer): 1.02; NanoBRET Fold Response (PTGER4; PTGER4, 1μM tracer): 1.06 |
| CN1CCN(C2=Nc3cc(Cl)ccc3Nc3ccc(CNC(=O)CCOCCOCCOCCOCCNC(=O)CCc4ccc5n4[B-](F)(F)[N+]4=C(c6ccc[nH]6)C=CC4=C5)cc32)CC1 [Clozapine-b-2-NB590] |  |  |  |  | NanoBRET Fold Response (PTGIR; PTGIR, 0.1μM tracer): 0.98; NanoBRET Fold Response (PTGIR; PTGIR, 1μM tracer): 1.00; NanoBRET Fold Response (PTGER4; PTGER4, 0.1μM tracer): 1.03; NanoBRET Fold Response (PTGER4; PTGER4, 1μM tracer): 1.03 |
